From patent US20040192624A1, “Method for treating a disease, disorder or adverse effect caused by an elevated serum concentration of an UGT1A1 substrate” (priority 2003, published 2004)
One block for each compound: values may come before it.

Legend:
[1] = system: bilirubin-conjugating activity; conditions: indinavir treatment; cited from earlier work
[2] = system: 3-methylcholanthrene-inducible UDP-glucuronosyltransferase; assay: Rat liver microarray (Affymetrix Rat U34), induction of probe sequences by ritonavir; type: in vivo, Sprague-Dawley rats; conditions: 3-Day Studies, probe sequence 4 of 5, rat liver
[3] = system: UDP-glucuronosyltransferase 1 family, member 1; assay: as above; type: in vivo, Sprague-Dawley rats; conditions: 3-Day Studies
[4] = system: UGT1A1; assay: Hepatic 17α-ethinylestradiol glucuronidation activity in liver microsomes of treated rats; conditions: both male and female rats
[5] = system: UDP glucuronosyltransferase, exon 1.; assay: Rat liver microarray (Affymetrix Rat U34), induction of probe sequences by ritonavir; conditions: 3-Day Studies, probe sequence 5 of 5, rat liver
[6] = system: UDP-glucuronosyltransferase 1A (UGT1A); assay: Rat liver microarray, all 5 UGT1A probe sets; type: in vivo, Sprague-Dawley rats; conditions: rats, dose levels of 100 mg/kg and higher, after 1 and 3 days of treatment
[7] = biological target: T1, UGT1A1 isoform (Homo sapiens, UniProt P22309); conditions: human cells transfected with the UGT1A1 isoform; cited from earlier work
T1 sequence (P22309 26-533): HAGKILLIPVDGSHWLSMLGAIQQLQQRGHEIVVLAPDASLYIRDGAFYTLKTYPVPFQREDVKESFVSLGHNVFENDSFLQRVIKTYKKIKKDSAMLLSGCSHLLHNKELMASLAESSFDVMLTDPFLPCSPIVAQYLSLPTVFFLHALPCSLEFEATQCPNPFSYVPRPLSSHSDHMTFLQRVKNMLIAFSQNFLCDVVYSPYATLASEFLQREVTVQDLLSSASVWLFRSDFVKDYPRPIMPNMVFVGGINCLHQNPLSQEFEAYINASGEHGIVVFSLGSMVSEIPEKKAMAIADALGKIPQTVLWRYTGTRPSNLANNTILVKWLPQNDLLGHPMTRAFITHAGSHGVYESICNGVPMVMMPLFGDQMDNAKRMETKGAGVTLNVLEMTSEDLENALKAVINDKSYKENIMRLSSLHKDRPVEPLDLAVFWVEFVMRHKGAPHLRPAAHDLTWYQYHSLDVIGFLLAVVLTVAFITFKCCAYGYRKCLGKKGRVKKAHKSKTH

[8] = system: bilirubin conjugation in human microsomes; conditions: in vitro system of human microsomes; cited from earlier work
[9] = Ethinylestradiol pharmacokinetics alone and with ritonavir in healthy female volunteers; type: in vivo, human; conditions: for t1/2: ethinylestradiol terminal phase, reported as harmonic mean
Protocol: This was an open-label, single-center study in healthy female volunteers who had not received an oral contraceptive for a minimum of six months prior to study start. Subjects received the first dose of oral contraceptive containing 50 μg of ethinyl estradiol on Day 1. […] On Day 15, 300 mg q12h was administered, 400 mg q12h was given on Day 16, and 500 mg q12h was administered thereafter. […] Blood samples for ethinylestradiol concentrations were collected for 48 h after each of the oral contraceptive doses.
Ethinylestradiol was supplied as Demulen@ 1/50-21 tablets (G.D. Searle & Co.) containing 50 μg of ethinylestradiol and 1 mg of ethynodiol diacetate and was administered at 8:00 a.m. on Day 1 and Day 29 with approximately 240 mL of water and within 15 minutes of a meal or snack.
Subjects were confined for 64 hours from Day -1 (day prior to the initial dose) through the first 48 hour blood collection (morning of Day 3) and for 64 hours from Day 28 through the second 48 hour blood collection (morning of Day 31). In addition, subjects came to the clinical testing unit as outpatients for meals, dosing and other study activities twice daily for a total of 14 consecutive days, starting on Day 15. Strenuous activity during confinement was not permitted. During confinement, subjects abstained from all food and beverages except for the scheduled meals and snacks provided in the study. Water was available ad libitum. All meals were standardized with regard to content during confinement. Breakfast, lunch, and dinner were served at approximately 7:30 a.m., 1:00 p.m. and 7:30 p.m. and snacks were provided at approximately 10:00 p.m., except on Days-1 and 28 when the snack was served at 9:45 p.m. An 8 hour fast was required prior to all blood collections for clinical laboratory analyses. The sequence of starting breakfast and dinner on each dosing day during confinement was maintained to the minute such that the time intervals relative to dosing were the same among all subjects.
Blood samples (7 mL) were collected for serum ethinyl estradiol concentrations at the following times relative to the dose on Day 1 and Day 29: prior to (0 h) and at 0.5, 1, 2, 3, 4, 6, 8, 10, 12, 18, 24, 30, 36, and 48 h post-dose. […] All plasma and serum samples were packed with dry ice and shipped to the analytical sites.
Analysis of serum samples for determination of ethinyl estradiol was performed at Pharmaco LSR, Richmond, Va. Ethinylestradiol serum concentrations were determined using a gas chromatography/mass spectrometry (GC/MS) method. 17α-ethinylestradiol and its corresponding isotopically labeled internal standard were isolated from human serum by buffering the serum to pH 8.6 and then extracting with an ethyl ether/methylene chloride mixture. The organic layer was exchanged into aqueous base, washed with hexane and then acidified and extracted with methylene chloride. The extract was dried with sodium carbonate, evaporated and derivatized. The derivatized extract was stored at −20° C. until analysis. Analysis was by capillary GC/MS using negative chemical ionization with selected ion monitoring. This method has been validated over 17α-ethinylestradiol concentrations ranging from 2.00 to 256 pg/mL for a 1.0 mL serum volume, with a minimum quantitation limit of 2.00 pg/mL.
Ethinylestradiol pharmacokinetic parameters were estimated following two single doses, on Day 1 and Day 29, using noncompartmental methods. The pharmacokinetic parameters were calculated using the intended sampling times; all samples were collected within 10% of intended sampling times. Maximal plasma concentration (Cmax,) and time to reach Cmax (Tmax) were obtained directly from individual concentration vs. time profiles. […]

[10] = female, human, serum, po, 50 μg

SMILES: CC(C)(C)NC(=O)[C@@H]1CN(Cc2cccnc2)CCN1C[C@@H](O)C[C@@H](Cc1ccccc1)C(=O)N[C@H]1c2ccccc2C[C@H]1O [indinavir]
cause of elevations in serum-unconjugated bilirubin [1]: direct inhibition of bilirubin-conjugating activity

UGT1A levels for all probe sets [6]: consistent increase
SMILES: CC(C)c1nc(CN(C)C(=O)N[C@H](C(=O)N[C@@H](Cc2ccccc2)C[C@H](O)[C@H](Cc2ccccc2)NC(=O)OCc2cncs2)C(C)C)cs1 [ritonavir]
Fold change, 3-methylcholanthrene-inducible UDP-glucuronosyltransferase ([2]; 75 mg/kg): 1.97
Fold change, 3-methylcholanthrene-inducible UDP-glucuronosyltransferase ([2]; 100 mg/kg): 2.26
Fold change, 3-methylcholanthrene-inducible UDP-glucuronosyltransferase ([2]; 125 mg/kg): 2.25
Fold change, UDP-glucuronosyltransferase 1 family, member 1 ([3]; 75 mg/kg, probe sequence 1 of 5, rat liver): 1.56
Fold change, UDP-glucuronosyltransferase 1 family, member 1 ([3]; 75 mg/kg, probe sequence 2 of 5, rat liver): 1.38
Fold change, UDP-glucuronosyltransferase 1 family, member 1 ([3]; 75 mg/kg, probe sequence 3 of 5, rat liver): 1.57
Fold change, UDP-glucuronosyltransferase 1 family, member 1 ([3]; 100 mg/kg, probe sequence 1 of 5, rat liver): 1.67
Fold change, UDP-glucuronosyltransferase 1 family, member 1 ([3]; 100 mg/kg, probe sequence 2 of 5, rat liver): 1.46
Fold change, UDP-glucuronosyltransferase 1 family, member 1 ([3]; 100 mg/kg, probe sequence 3 of 5, rat liver): 1.61
Fold change, UDP-glucuronosyltransferase 1 family, member 1 ([3]; 125 mg/kg, probe sequence 1 of 5, rat liver): 1.54
Fold change, UDP-glucuronosyltransferase 1 family, member 1 ([3]; 125 mg/kg, probe sequence 2 of 5, rat liver): 1.42
Fold change, UDP-glucuronosyltransferase 1 family, member 1 ([3]; 125 mg/kg, probe sequence 3 of 5, rat liver): 1.65
effect on glucuronidation of 17α-ethinylestradiol, a UGT1A1 substrate [4]: significantly increase
Fold change, UDP glucuronosyltransferase, exon 1. ([5]; 100 mg/kg): 3.96
Fold change, UDP glucuronosyltransferase, exon 1. ([5]; 125 mg/kg): 5.06

SMILES: COC(=O)N[C@H](C(=O)N[C@@H](Cc1ccccc1)[C@@H](O)CN(Cc1ccc(-c2ccccn2)cc1)NC(=O)[C@@H](NC(=O)OC)C(C)(C)C)C(C)(C)C [atazanavir]
inhibition of bilirubin conjugation [7]: micromolar range
inhibition of bilirubin conjugation [8]: micromolar range

t1/2 ([9]; alone Day 1, with ritonavir 500 mg q12h Day 29): 17.0 h
t1/2 ([9]; alone Day 1, with ritonavir 500 mg q12h Day 29, listed as ethinyl estradiol): 17.0 h
half-life ([9]; female, human, serum, oral, 500 mg): 17 h
AUC(0-inf) [9, 10]: 1.67 ± 0.377 ng·h/mL
Cmax [9, 10]: 0.104 ± 0.024 ng/mL
Tmax ([9]; female, human, serum, po, 50 μg, serum ethinylestradiol after single oral contraceptive dose (50 μg), Mean ± SD, n = 23, alone Day 1, with ritonavir 500 mg q12h Day 29): ~4 h
SMILES: C#C[C@]1(O)CC[C@H]2[C@@H]3CCc4cc(O)ccc4[C@H]3CC[C@@]21C [Ethinylestradiol, 17α-ethinylestradiol]
